Values after ≈ are worked out from the molar mass of the structure shown. Values joined by “and” are separate entries in the source; they are usually repeats but may differ in a detail not shown here. Identical values can stand only once. Like-named read-outs stand apart in the source and are kept apart here.
Columns and labels:
[1] = test system: photosynthetic apparatus of spinach chloroplasts (PS 2 / PS 1); assay: Site of action: restoration of PET by artificial electron donors (DPC, DCPIPH2); format: biochemical, Spinacia oleracea L.
Experimental: To further determine the site of action of the studied compounds, experiments with 1,5-diphenylcarbazide (DPC) were performed. DPC is an artificial electron donor for PS 2 with a known site of action in the Z^•/D^• intermediate. The site of action of the artificial electron acceptor 2,6-dichlorophenol-indophenol (DCPIP) used for monitoring the Hill reaction is plastoquinone on the acceptor side of PS 2 [51]. Thus, if the part of the photosynthetic electron transport chain between manganese cluster and Z/D is inhibited, then DPC will restore PET through PS 2.

[2] = test system: Trichophyton mentagrophytes 445; assay: In vitro anti-fungal susceptibility, broth microdilution; format: cell-based; settings: MIC = IC50 value, NA = no significant activity
Experimental: (§1) The broth microdilution test was used for the assessment of in vitro anti-fungal activity of the synthesized compounds against Absidia corymbifera 272 (AC) and Trichophyton mentagrophytes 445 (TM). Fluconazole (FLU) was used as the standard since it is a clinically used anti-mycotic drug. The procedure was performed with a two-fold dilution of the compounds in […]., Prague, Czech Republic) buffered to pH 7.0 with 0.165 mol of 3-morpholino-propane-1-sulfonic acid (MOPS, Sigma, Germany). […] Drug-free controls were included. […] The values of the minimum inhibitory concentration (MICs) were determined after 24 and 48 h of static incubation at 35 °C. For T. mentagrophytes, the final MICs were determined after 72 and 120 h of incubation.

Absidia corymbifera 272 = assay: as above; format: cell-based
Experimental: as §1

[3] = test system: photosynthetic apparatus of spinach chloroplasts; assay: EPR spectra of treated spinach chloroplasts; format: biochemical, Spinacia oleracea L.; settings: 0.05 M of compound, under irradiation, versus untreated chloroplasts
Experimental: Experiments were then performed to determine the site of action of the studied compounds in the photosynthetic apparatus. In Figure 2, EPR spectra of untreated chloroplasts and those treated with the very effective PET inhibitor, compound 3 (Table 2), are presented. The EPR spectrum of untreated chloroplasts recorded in the dark consists of the typical signal IIslow (g = 2.0046, ΔBpp= 2 mT, see Figure 2A - full line). An increase of EPR signal intensity in the light represents signal IIvery fast (g = 2.0046, ΔBpp= 2 mT; in Figure 2A it is the difference between dotted and full lines). These EPR signals belong to the intermediates D^• and Z^• respectively, which are tyrosine radicals situated in the 161st positions in D2 (for D) and D1 (for Z) proteins at the donor side of PS 2 [48, 49]. […]
EPR spectra were registered by the equipment ERS 230 (ZWG, Acad. Sci., Berlin, Germany), which operates in X-band (~9.3 GHz), with modulation amplitude 0.5 mT and microwave power 5 mW at room temperature. The samples containing chlorophyll (3.2 g/L) were measured in a flat quartz cell and their irradiation (~400 μE/m^2s PAR) was carried out directly in the resonance cavity with a 250 W halogen lamp from 0.5 m distance through 5 cm water filter.

[4] = test system: Staphylococcus epidermidis H 6966/08; assay: In vitro anti-bacterial susceptibility, Mueller-Hinton broth; format: cell-based; settings: MIC = IC90 value, NA = no significant activity
[5] = test system: photosynthetic electron transport (PET) in spinach chloroplasts; assay: Inhibition of photosynthetic electron transport (PET) in spinach chloroplasts, DCPIP photoreduction; format: biochemical, Spinacia oleracea L.; settings: DCPIP photoreduction, pH 7.2
Experimental: Chloroplasts were prepared from spinach (Spinacia oleracea L.) according to Masarovicova and Kralova. The inhibition of photosynthetic electron transport (PET) in spinach chloroplasts was determined spectrophotometrically (Genesys 6, Thermo Scientific, USA), using an artificial electron acceptor 2,6-dichlorophenol-indophenol (DCIPP) according to Kralova et al., and the rate of photosynthetic electron transport was monitored as a photoreduction of DCPIP. The measurements were carried out in phosphate buffer (0.02 mol/L, pH 7.2) containing sucrose (0.4 mol/L), MgCl2 (0.005 mol/L) and NaCl (0.015 mol/L). The chlorophyll content was 30 mg/L in these experiments and the samples were irradiated (~100 W/m^2) from 10 cm distance with a halogen lamp (250 W) using a 4 cm water filter to prevent warming of the samples (suspension temperature 22 °C). The studied compounds were dissolved in DMSO due to their limited water solubility.

[6] = Lipophilicity determination by RP-HPLC (capacity factor k / log k); format: physicochemical; settings: C18 column, MeOH 70% / H2O 30%, isocratic
Experimental: Hydrophobicities (log P/Clog P) of the compounds 1-5 and 8-14 were calculated using two commercially available programs (ChemDraw Ultra 10.0 and ACD/LogP) and also measured by means of the RP-HPLC determination of capacity factors k with subsequent calculation of log k. The procedure was performed under isocratic conditions with methanol as an organic modifier in the mobile phase using an end-capped non-polar C18 stationary RP column. The results are shown in Table 1 and illustrated in Figure 1.
A Waters Alliance 2695 XE HPLC separation module and a Waters Photodiode Array Detector 2996 (Waters Corp., Milford, MA, USA) were used. A Symmetry® C18 5 μm, 4.6 × 250 mm, Part No. WAT054275 (Waters Corp., Milford, MA, USA) chromatographic column was used. The HPLC separation process was monitored by Empower™ 2 Chromatography Data Software, Waters 2009 (Waters Corp., Milford, MA, USA). A mixture of MeOH p.a. (70%) and H2O-HPLC – Mili-Q Grade (30%) was used as a mobile phase. The total flow of the column was 1.0 mL/min, injection volume 30 μL, column temperature 30 °C and sample temperature 10°C. The detection wavelength of 210 nm was chosen. The KI methanolic solution was used for the dead time (tD) determination. Retention times (tR) were measured in minutes. The capacity factors k were calculated using the Empower™ 2 Chromatography Data Software according to formula k = (tR - tD)/tD, where tR is the retention time of the solute, whereas tD denotes the dead time obtained using an unretained analyte. Log k, calculated from the capacity factor k, is used as the lipophilicity index converted to log P scale.

[7] = parameters: method as in PMID 1151976; settings: parameter of the substituents in the anilide part; cited from earlier work
[8] = test system: methicilin resistant Staphylococcus aureus H 5996/08; assay: In vitro anti-bacterial susceptibility, Mueller-Hinton broth; format: cell-based; settings: MRSA, methicillin-resistant Staphylococcus aureus, MIC = IC90 value, NA = no significant activity
[9] = test system: M. avium paratuberculosis ATCC19698; assay: In vitro anti-mycobacterial evaluation, alamarBlue; format: cell-based; settings: 7 days, NA = no significant activity
M. kansasii CIT11/06 = assay: In vitro anti-mycobacterial evaluation, alamarBlue; settings: 5 days, NA = no significant activity
Experimental: (§2) Clinical isolates of Mycobacterium avium complex CIT19/06 (MAC), M. avium paratuberculosis ATCC19698 (MAP), and M. kansasii CIT11/06 (MK) were grown in Middlebrook broth (MB), supplemented with Oleic, Albumin, Dextrose, Catalase supplement (OADC, Becton Dickinson, UK). […] At log phase growth, culture (10 mL) was centrifuged at 15,000 rpm/20 min using a bench top centrifuge (Model CR 4-12 Jouan Inc., UK). Following removal of the supernatant, the pellet was washed in fresh Middlebrook 7H9GC broth and re-suspended in fresh supplemented MB (10 mL). The turbidity was adjusted to match McFarland standard No. 1 (3 × 10^8 cfu) with MB broth. A further 1:20 dilution of the culture was then performed in MB broth.
(§3) The anti-microbial susceptibility of all three mycobacterial species was investigated in a 96-well plate format. […] Each evaluated compound (100 µL) was incubated with each of the mycobacterial species (100 µL). […] Following incubation, a 10% addition of alamarBlue (AbD Serotec) was mixed into each well and readings at 570 nm and 600 nm were taken, initially for background subtraction and subsequently after 24 h re-incubation. […] For non-interfering compounds, a blue colour in the well was interpreted as an absence of growth and a pink colour was scored as growth. […]

[10] = test system: Mycobacterium avium complex CIT19/06; assay: In vitro anti-mycobacterial evaluation, alamarBlue; settings: 5 days, NA = no significant activity
Experimental: as §2, §3

[11] = test system: photosynthetic electron transport (PET) in spinach chloroplasts; parameters: method as in earlier work; settings: standard, read-out: PET inhibition IC50; cited from earlier work
[12] = Lichtheimia corymbifera, 272, 24 h, read-out: MIC AC 24 h
[13] = Lichtheimia corymbifera, 272, 48 h, read-out: MIC AC 48 h
[14] = H6966/08, 24 h, read-out: MIC SE 24 h
[15] = H6966/08, 48 h, read-out: MIC SE 48 h

Row | Compound | restoration of PET through PS 1 after addition of DCPIPH2 ([1]; DCPIPH2 40 μmol/L added to treated chloroplasts) | restoration of PET through PS 2 after addition of DPC ([1]; DPC 2 mmol/L added to treated chloroplasts) | MIC ([2]; 72 h, read-out: MIC TM 72 h) | MIC ([2]; 120 h, read-out: MIC TM 120 h) | MIC (Absidia corymbifera 272; [12]) | MIC (Absidia corymbifera 272; [13]) | intensity of the EPR signal (signal I) in irradiated chloroplasts [3] | MIC [4, 14] | MIC [4, 15] | IC50 [5] | log k [6] | MR (bulk parameter, reflecting bulkiness) [7] | σ (Hammett's parameter) [7] | MIC ([8]; 24 h, read-out: MIC MRSA 24 h) | MIC ([8]; 48 h, read-out: MIC MRSA 48 h) | MIC/IC90 MAP [9] | MIC/IC90 MK (M. kansasii CIT11/06) | MIC/IC90 MAC [10] | IC50 [11]
1 | COc1ccccc1NC(=O)c1ccccc1O [Compound 3, 2-Hydroxy-N-(2-methoxyphenyl)benzamide] | completely restored | not restored | 125 µM (≈ 30.4 µg/mL) | 125 µM (≈ 30.4 µg/mL) | 125 µM (≈ 30.4 µg/mL) | 125 µM (≈ 30.4 µg/mL) | marked increase | > 500 µM | > 500 µM | 1600 nM | 0.6770 | 6.5 | 0.00 | 500 µM (≈ 122 µg/mL) | > 500 µM | – | – | – | –
2 | NNC(=O)c1ccncc1 [INH, Isoniazid, reference compound] | – | – | – | – | – | – | – | – | – | – | – | – | – | – | – | >250 µg/mL | <10 µg/mL | <10 µg/mL | –
3 | Cc1ccccc1NC(=O)c1ccccc1O [Compound 1, 2-Hydroxy-N-(2-methylphenyl)benzamide] | – | – | 62.5 µM (≈ 14.2 µg/mL) | 125 µM (≈ 28.4 µg/mL) | 62.5 µM (≈ 14.2 µg/mL) | 250 µM (≈ 56.8 µg/mL) | – | 125 µM (≈ 28.4 µg/mL) | 250 µM (≈ 56.8 µg/mL) | 2700 nM | 0.6661 | 4.7 | 0.10 | 125 µM (≈ 28.4 µg/mL) | 250 µM (≈ 56.8 µg/mL) | 250 µg/mL (≈ 1100 µM) | 125 µg/mL (≈ 550 µM) | 250 µg/mL (≈ 1100 µM) | –
4 | CN(C)C(=O)Nc1ccc(Cl)c(Cl)c1 [DCMU, 3-(3,4-dichlorophenyl)-1,1-dimethylurea] | – | – | – | – | – | – | – | – | – | – | – | – | – | – | – | – | – | – | ~1900 nM and 1900 nM

Reference: article PMC6259458, “Investigating the Spectrum of Biological Activity of Ring-Substituted Salicylanilides and Carbamoylphenylcarbamates” (Molecules, 2010)
